According to patent publication US20130273649A1, “Culture medium for pluripotent stem cells” (UNIVERSITY OF SOUTHERN CALIFORNIA, priority 2012, published 2013):

Experiments:
Assay type in all cases: cell-based
mouse EpiSCs = experiment: Mouse EpiSC self-renewal culture; conditions: for EpiSC self-renewal / maintenance of undifferentiated state: CD1 mouse EpiSCs, GMEM/10% FBS, no FGF2/activin unless named, CHIR 3 μM, PD0325901 1 μM, XAV939 2 μM, IWR-1 2.5 μM, IWP-2 2.5 μM, Pyrvinium 100 nM
From the text: We therefore reasoned that if CHIR induces EpiSC differentiation through stabilization of β-catenin, de-stabilization of β-catenin might promote EpiSC self-renewal. We tested this hypothesis by administering the tankyrase inhibitor XAV939 to mouse EpiSC cultures. XAV939-mediated inhibition of tankyrase stabilizes Axin, leading to the formation of the β-catenin destruction complex, composed of GSK3, Axin and adenomatous polyposis coli (APC) (Huang et al., 2009). […] EpiSCs cultured in CHIR/XAV could be routinely passaged by single-cell dissociation and replating onto gelatin-coated dishes, and could be cryo-preserved and recovered at high efficiency by standard techniques.
final concentrations: CHIR99021 (3 μM), PD0325901 (1 μM), XAV939 (Sigma, 2 μM), IWR-1 (Sigma, 2.5 μM), IWP-2 (Stemgent, 2.5 μM), Pyrvinium (Sigma, 100 nM), recombinant human FGF2 (PeproTech, 10 ng/ml), and recombinant human activin A (PeproTech, 10 ng/ml). CHIR99021 and PD0325901 were synthesized in the Division of Signal Transduction Therapy, University of Dundee, UK.
The basal medium for mouse EpiSC culture is the conventional mouse ESC medium, which consists of GMEM (Sigma) supplemented with 10% fetal bovine serum (FBS) (Hyclone), 2 mM L-glutamine (Invitrogen), 1 mM sodium pyruvate (Invitrogen), 1% nonessential amino acids (Invitrogen), and 0.1 mM (3-mercaptoethanol. Mouse EpiSCs were derived and maintained in the basal medium supplemented with FGF2/activin, CHIR/XAV, or CHIR/IWR-1. The basal medium for rat EpiSC culture is N2B27 (Tong et al., 2011), which was prepared by mixing 500 ml of DMEM/F12 (Invitrogen) with 500 ml of Neurobasal™ medium (Invitrogen), and adding 5 ml of N2 (Invitrogen), 10 ml of B27 (Invitrogen), 5 ml of Glutamax™ (Invitrogen), and 1 ml of 0.1 M β-mercaptoethanol (Sigma). The basal medium for human ESC culture consists of Knockout™ DMEM/F12 supplemented with 20% KSR (Invitrogen), 1% nonessential amino acids, 2 mM L-glutamine, and 0.1 mM (3-mercaptoethanol. Human ESCs were cultured in the basal medium supplemented with FGF2, CHIR/XAV, or CHIR/IWR-1.
Post-implantation epiblasts were isolated from mouse or rat embryos and dissociated into small clumps as previously described (Chenoweth and Tesar, 2010). Epiblast fragments were placed into 4-well plates pre-coated with 0.1% gelatin (for mouse epiblasts) or pre-seeded with γ-irradiated mouse embryonic fibroblasts (MEFs) (for rat epiblasts) and cultured in either the FGF2/activin or the CHIR/XAV conditions. Emerging EpiSCs were trypsinized and expanded every 2-3 days at a subculture ratio of 1:4. Animal experiments were performed according to the investigator's protocols approved by the University of Southern California Institutional Animal Care and Use Committee.

[1] = tested on: β-catenin/TCF-responsive TOPFlash reporter; experiment: TOPFlash reporter assay in H9 human ESCs; conditions: 24 h, added to CHIR
Method: (A) TOPFlash™ assay in H9 human ESCs subjected to the indicated treatments for 24 h. Data represent mean±s.d. of three biological replicates. (B) Representative phase contrast and alkaline phosphatase (AP) staining images of H9 human ESCs cultured in the indicated conditions for 3 passages. (C) Phase contrast images of H9 human ESCs cultured in CHIR/XAV or CHIR/IWR-1 for 11 passages. (D) Colony forming efficiency assay of H9 human ESCs cultured in FGF2 or CHIR/IWR-1 conditions. Data represent mean±s.d. of three biological replicates. Right panel: a representative image showing AP staining of colonies formed from H9 human ESCs cultured in either FGF2 or CHIR/IWR-1 condition. (E) Human ESCs cultured in CHIR/IWR-1 for 11 passages were immunostained with the indicated antibodies. (F) Embryoid bodies (EBs) were generated from H9 human ESCs cultured in CHIR/IWR-1 for 11 passages. The outgrowths of EBs were immunostained with the indicated antibodies. (G) H&E staining of teratomas generated from H9 ESCs cultured in CHIR/IWR-1 for 20 passages. (H) Western blot analysis of Axin1 and Axin2 expression in HES3 human ESCs treated with the indicated cytokines/inhibitors for 24 h. (I) Immunofluorescence images of H9 human ESCs (passage 5 in CHIR) overexpressing Flag-tagged Axin2. (J) Representative phase contrast and immunofluorescence images of HES2 human ESCs overexpressing ΔNβ-catenin-ERT2 at passage 5 in basal medium only. These cells were cultured in basal medium only for more than 10 passages and remained morphologically undifferentiated. (K) Phase contrast images of HES2 human ESCs overexpressing ΔNβ-catenin (left panel, passage 2 in basal medium/FGF2) or ΔNβ-catenin/A295W/I296W mutant (right panel, passage 5 in basal medium only). Scale bars, 50 μm (B, C, E-G, and I-K). (L) Model of mouse EpiSC and human ESC self-renewal mediated by β-catenin. In the absence of Wnt or GSK3 inhibitor, a β-catenin destruction complex, containing Axin1, GSK3, and APC is formed, leading to the degradation of β-catenin and differentiation (left). In the presence of Wnt or GSK3 inhibitor, β-catenin is stabilized and can initiate cellular responses related to both self-renewal and differentiation. Stabilized β-catenin induces differentiation when it translocates into the nucleus and binds TCFs to activate downstream targets (middle). Addition of XAV or IWR-1 stabilizes Axin2. […]
(§1) For quantifying relative Oct3/4 enhancer activities, pGL3-Oct4 DE and pGL3-Oct4 PE plasmids (gifts from Hans Schöler's lab) were co-transfected with the Renilla vector, using the Amaxa™ Transfection Kit (Lonza). […] For quantifying relative β-catenin/Tcf transcriptional activity, pGL2-SuperTOP™ plasmid (gift from Randall Moon) was co-transfected with the Renilla vector and assayed accordingly.

Axin1 [2] = experiment: Western blot of Axin1 in human ESCs; conditions: human ESCs treated 24 h
Method: (A) TOPFlash™ assay in H9 human ESCs subjected to the indicated treatments for 24 h. Data represent mean±s.d. of three biological replicates. (B) Representative phase contrast and alkaline phosphatase (AP) staining images of H9 human ESCs cultured in the indicated conditions for 3 passages. (C) Phase contrast images of H9 human ESCs cultured in CHIR/XAV or CHIR/IWR-1 for 11 passages. (D) Colony forming efficiency assay of H9 human ESCs cultured in FGF2 or CHIR/IWR-1 conditions. Data represent mean±s.d. of three biological replicates. Right panel: a representative image showing AP staining of colonies formed from H9 human ESCs cultured in either FGF2 or CHIR/IWR-1 condition. (E) Human ESCs cultured in CHIR/IWR-1 for 11 passages were immunostained with the indicated antibodies. (F) Embryoid bodies (EBs) were generated from H9 human ESCs cultured in CHIR/IWR-1 for 11 passages. The outgrowths of EBs were immunostained with the indicated antibodies. (G) H&E staining of teratomas generated from H9 ESCs cultured in CHIR/IWR-1 for 20 passages. (H) Western blot analysis of Axin1 and Axin2 expression in HES3 human ESCs treated with the indicated cytokines/inhibitors for 24 h. (I) Immunofluorescence images of H9 human ESCs (passage 5 in CHIR) overexpressing Flag-tagged Axin2. […]

Axin2 [3] = experiment: Western blot of Axin2 in human ESCs; conditions: human ESCs treated 24 h
Axin2 [4] = experiment: Western blot of Axin2 in mouse EpiSCs; conditions: CD1 mouse EpiSCs treated 12 h
[5] = tested on: β-catenin/TCF-responsive TOPFlash reporter; experiment: TOPFlash reporter assay in mouse EpiSCs; conditions: CD1 mouse EpiSCs, 12 hours, added to CHIR
Method: (§2) (A) TOPFlash™ assay in CD1 mouse EpiSCs treated with the indicated inhibitors for 12 hours. Data represent mean±s.d. of three biological replicates. (B) Representative phase contrast images of CD1 mouse EpiSCs cultured in the indicated conditions for 7 days. (C) Western blot analysis of CD1 mouse EpiSCs treated with the indicated inhibitors for 12 h. (D) qRT-PCR analysis of Axin1 and Axin2 mRNA levels in CD1 mouse EpiSCs stably transfected with Axin1 shRNA or Axin2 shRNA. Data represent mean±s.d. of three biological replicates. (E) Colony assay on CD1 mouse EpiSCs stably transfected with scramble, Axin1, or Axin2 shRNAs. Cells were plated onto a 6-well plate at a density of 5,000 cells/well and cultured in CHIR/IWR-1. Colonies were counted 7 days after plating. Data represent the total combined numbers of colonies from two independent experiments in which each shRNA-transfected group was cultured in one well of a 6-well plate. (F) Representative phase contrast images of CD 1 mouse EpiSCs stably transfected with the indicated shRNAs and cultured in CHIR/IWR-1 for 7 days. (G) Western blot analysis of CD1 mouse EpiSCs overexpressing Flag-tagged Axin1 or Axin2. (H) Representative phase contrast images of CD1 mouse EpiSCs overexpressing Axin1 or Axin2 and cultured in CHIR for 7 days. Axin2-overexpressing EpiSCs could be continually passaged in CHIR alone. Scale bars, 50 μm (B, F and H)
Next, we investigated the mechanism by which CHIR/XAV promotes EpiSC self-renewal. By inhibiting GSK3 phosphorylation of β-catenin, CHIR stabilizes β-catenin, which then trans-locates to the nucleus and forms complexes with DNA-binding proteins, including TCFs, to activate transcription (Logan and Nusse, 2004). […]
as §1

Axin1 [6] = experiment: Western blot of Axin1 in mouse EpiSCs; conditions: CD1 mouse EpiSCs treated 12 h
Method: as §2
Next, we investigated the mechanism by which CHIR/XAV promotes EpiSC self-renewal. By inhibiting GSK3 phosphorylation of β-catenin, CHIR stabilizes β-catenin, which then trans-locates to the nucleus and forms complexes with DNA-binding proteins, including TCFs, to activate transcription (Logan and Nusse, 2004). […] Axin has two isoforms, Axin1 and Axin2. […] The expression level of Axin2, but not Axin1, was also elevated by CHIR treatment (FIG. 4C), an outcome consistent with previous findings that Axin2 is a direct downstream target of Wnt/β-catenin signaling (Jho et al., 2002). […]

[7] = tested on: β-catenin-TCF transcriptional activity; experiment: β-catenin-TCF transcriptional activity induced by CHIR; conditions: data not shown
From the text: The role of β-catenin in human ESC self-renewal has been controversial. […] Our finding that activation of β-catenin can promote human ESC self-renewal or differentiation, and that the respective outcome is dictated by whether β-catenin translocates into the nucleus, provides a rational explanation for earlier, seemingly paradoxical results. […] Some of the contradicted results on the role of β-catenin in human ESC self-renewal, therefore, might be attributable to variations in the subcellular localization of β-catenin under different culture conditions.

Compound: 4-hydroxytamoxifen [4-OHT]
- differentiation of ΔNβ-catenin-ERT2-overexpressing EpiSCs (mouse EpiSCs; 1 μM 4-OHT, even in the presence of IWR-1): resulted in rapid differentiation

Compound: Cc1ccc2nc(NC(=O)CSc3nc4c(c(=O)n3-c3ccccc3)SCC4)sc2c1 [IWP-2]
- effect on TOPFlash activity induced by CHIR [1]: only partially suppressed
- EpiSC self-renewal / maintenance of undifferentiated state (mouse EpiSCs): unable to support EpiSC self-renewal

Compound: O=C(Nc1cccc2cccnc12)c1ccc(N2C(=O)[C@@H]3[C@H](C2=O)[C@@H]2C=C[C@H]3C2)cc1 [IWR-1, 4-(1,3,3a,4,7,7a-Hexahydro-1,3-dioxo-4,7-methano-2H-isoindol-2-yl)-N-8-quinolinyl-Benzamide]
- amount of Axin1 protein (Axin1 [2]): significantly increased
- amount of Axin2 protein (Axin2 [3]): significantly increased
- effect on TOPFlash activity induced by CHIR [1]: abolished this TOPFlash™ activity
- amount of Axin2 protein (Axin2 [4]): significantly increased
- effect on TOPFlash activity induced by CHIR [5]: blocked TOPFlash™ reporter activity induced by CHIR
- amount of Axin1 protein (Axin1 [6]): significantly increased

Compound: Cc1cc(/C=C/c2ccc3cc(N(C)C)ccc3[n+]2C)c(C)n1-c1ccccc1 [Pyrvinium]
- EpiSC self-renewal / maintenance of undifferentiated state (mouse EpiSCs): unable to support EpiSC self-renewal

Compound: bovine serum albumin: bovine serum albumin
- effect on β-catenin-TCF transcriptional activity induced by CHIR [7]: partially block
